From patent publication EP4624465A1, “COMPOUND SERVING AS DDR1 KINASE INHIBITOR, AND MEDICINE” (Nippon Shinyaku Co., Ltd., priority 2022, dated 2024) come the findings set out here.

Where “and” joins values, the source holds several entries; their conditions need not be identical. Identical values can stand only once. Counter-ions that a name gives are not always drawn.

In assay [1] the test system is anti-glomerular basement membrane antibody-induced nephritis model. As to the kind of experiment: In vivo drug efficacy in an anti-glomerular basement membrane antibody-induced nephritis model (urinary albumin). The conditions noted are these: twice daily for 7 days, WKY/NCrlCrlj rats, antibody untreated group = 0%, medium-treated group = 100%.
Assay [2] deals with T1, DDR1 kinase (Homo sapiens, UniProt Q08345). As to the kind of experiment: Evaluation of DDR1 kinase inhibition in DDR1-expressing U2OS cells (type I collagen stimulation, PathHunter detection). In kind it is cell-based. On the set-up: host or cells: U2OS. The settings on record: type I collagen 50 µg/mL stimulation, duplicate, read-out: DDR-1 IC50.
Target sequence in this assay (Q08345 19-913): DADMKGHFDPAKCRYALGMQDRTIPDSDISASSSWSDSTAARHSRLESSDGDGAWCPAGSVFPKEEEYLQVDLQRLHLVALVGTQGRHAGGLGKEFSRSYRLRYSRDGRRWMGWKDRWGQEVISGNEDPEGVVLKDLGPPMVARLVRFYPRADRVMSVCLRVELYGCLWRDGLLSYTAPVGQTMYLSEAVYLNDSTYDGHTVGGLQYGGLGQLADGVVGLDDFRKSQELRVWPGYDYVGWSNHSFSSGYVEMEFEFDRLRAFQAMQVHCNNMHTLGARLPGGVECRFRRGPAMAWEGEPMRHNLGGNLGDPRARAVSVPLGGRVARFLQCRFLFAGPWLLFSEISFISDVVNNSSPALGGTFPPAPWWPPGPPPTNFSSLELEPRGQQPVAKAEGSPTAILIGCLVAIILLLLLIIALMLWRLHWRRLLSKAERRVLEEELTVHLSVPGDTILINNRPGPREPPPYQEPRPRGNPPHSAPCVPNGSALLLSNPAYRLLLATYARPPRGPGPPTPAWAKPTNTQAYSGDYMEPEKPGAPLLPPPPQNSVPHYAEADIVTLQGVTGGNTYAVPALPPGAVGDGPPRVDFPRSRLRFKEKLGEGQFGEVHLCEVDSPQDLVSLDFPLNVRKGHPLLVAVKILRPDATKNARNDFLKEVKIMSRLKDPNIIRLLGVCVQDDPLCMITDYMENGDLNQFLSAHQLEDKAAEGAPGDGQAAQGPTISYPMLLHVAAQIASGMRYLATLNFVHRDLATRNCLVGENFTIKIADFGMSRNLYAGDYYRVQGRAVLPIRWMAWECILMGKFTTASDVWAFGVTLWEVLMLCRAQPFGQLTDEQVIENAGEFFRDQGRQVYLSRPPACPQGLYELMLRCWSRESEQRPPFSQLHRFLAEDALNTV
Assay [3] has as its target T1, DDR1 kinase. The assay can be described thus: Evaluation of DDR1 kinase inhibition (LANCE Ultra TR-FRET kinase assay). The assay is classed as biochemical. On the set-up: purchased Carna Biosciences 08-113. The settings on record: DDR1 protein 0.5 nM, LANCE Ultra ULight-poly GAT substrate, 2 hours at room temperature, duplicate; read-out: DDR-1 IC50.
Target sequence in this assay (Q08345 19-876 isoform Q08345-2 limits assumed): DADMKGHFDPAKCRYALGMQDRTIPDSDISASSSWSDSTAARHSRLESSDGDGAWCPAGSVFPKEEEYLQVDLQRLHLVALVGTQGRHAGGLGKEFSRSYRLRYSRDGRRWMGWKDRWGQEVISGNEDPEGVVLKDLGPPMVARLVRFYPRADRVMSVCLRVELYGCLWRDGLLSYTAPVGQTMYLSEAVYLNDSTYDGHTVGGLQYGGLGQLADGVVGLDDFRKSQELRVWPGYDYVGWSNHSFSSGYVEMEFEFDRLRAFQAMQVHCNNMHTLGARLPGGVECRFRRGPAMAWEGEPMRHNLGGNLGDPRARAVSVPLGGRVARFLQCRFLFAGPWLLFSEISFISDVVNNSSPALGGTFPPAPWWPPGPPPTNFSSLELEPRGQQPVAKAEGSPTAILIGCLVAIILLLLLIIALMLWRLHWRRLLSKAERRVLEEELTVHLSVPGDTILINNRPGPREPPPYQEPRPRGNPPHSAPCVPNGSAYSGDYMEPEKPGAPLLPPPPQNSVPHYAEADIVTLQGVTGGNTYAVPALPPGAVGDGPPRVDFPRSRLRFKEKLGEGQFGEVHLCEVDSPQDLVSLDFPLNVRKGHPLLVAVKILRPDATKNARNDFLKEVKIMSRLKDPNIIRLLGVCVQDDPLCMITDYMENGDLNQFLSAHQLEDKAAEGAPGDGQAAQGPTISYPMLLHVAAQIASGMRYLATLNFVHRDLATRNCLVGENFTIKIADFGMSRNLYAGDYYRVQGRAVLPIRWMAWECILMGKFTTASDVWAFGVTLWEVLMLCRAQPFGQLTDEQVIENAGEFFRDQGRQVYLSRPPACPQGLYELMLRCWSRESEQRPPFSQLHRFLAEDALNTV

In the case of `Cl.Nc1cc(C(=O)N2CC(c3nn(CC(=O)N4CCC[C@H]4C(F)(F)F)c4cc(F)cc(F)c34)C2)ccn1` [Compound E-2, 2-{3-[1-(2-aminopyridine-4-carbonyl)azetidin-3-yl]-4,6-difluoro-1H-indazol-1-yl}-1-[(2S)-2-(trifluoromethyl)pyrrolidin-1-yl]ethan-1-one hydrochloride], the “Amount (%) of albumin in urine compared with medium-treated group” value in assay [1] (Dose 200 mg/kg) stood at 73%. In addition, the IC50 on DDR1 kinase [2] was 37 nM; at DDR1 kinase [3] it was 1.6 nM.

With `Nc1cc(C(=O)N2CC(c3nn(CC(=O)N4CCC[C@H]4C(F)(F)F)c4cc(F)ccc34)C2)c(F)cn1` [Compound E-275, 2-{3-[1-(2-amino-5-fluoropyridine-4-carbonyl)azetidin-3-yl]-6-fluoro-1H-indazol-1-yl}-1-[(2S)-2-(trifluoromethyl)pyrrolidin-1-yl]ethan-1-one], the IC50 at DDR1 kinase [2] was 21 nM; at DDR1 kinase [3], 4.8 nM.

Regarding `Cc1nc(N)sc1C(=O)N1CC(c2nn(CC(=O)N3CCC[C@H]3C(F)(F)F)c3ccccc23)C1` [Compound E-197, 2-(3-[1-(2-amino-4-methyl-1,3-thiazole-5-carbonyl)azetidin-3-yl]-1H-indazol-1-yl}-1-[(2S)-2-(trifluoromethyl)pyrrolidin-1-yl]ethan-1-one], the IC50 amounted to 150 nM on DDR1 kinase [2] and 2.3 nM on DDR1 kinase [3].

As to `Nc1cc(C(=O)N2CC(c3nn(CC(=O)N4CCC[C@H]4C(F)(F)F)c4ccc(Cl)cc34)C2)c(F)cn1` [Compound E-206, 2-{3-[1-(2-amino-5-fluoropyridine-4-carbonyl)azetidin-3-yl}-5-chloro-1H-indazol-1-yl}-1-[(2S)-2-(trifluoromethyl)pyrrolidin-1-yl]ethan-1-one], the IC50 on DDR1 kinase [2] was 6 nM; on DDR1 kinase [3], 1.6 nM.

For `O=C(c1ccnc(NC2CC2)c1)N1CC(c2nn(CC(=O)N3CCC[C@H]3C(F)(F)F)c3cc(F)cc(F)c23)C1` [Compound E-72, 2-(3-{1-[2-(cyclopropylamino)pyridine-4-carbonyl]azetidin-3-yl)-4,6-difluoro-1H-indazol-1-yl)-1-[(2S)-2-(trifluoromethyl)pyrrolidin-1 - yllethan-1-one hydrochloride], the IC50 on DDR1 kinase [2] amounted to 200 nM; at DDR1 kinase [3] it was 8.5 nM.

With `Nc1cc(C(=O)N2CC(c3nn(CC(=O)N(CC(F)(F)F)C4CC4)c4ccccc34)C2)c(F)cn1` [Compound E-251, 2-{3-[1-(2-amino-5-fluoropyridine-4-carbonyl)azetidin-3-yl]-1H-indazol-1-yl}-N-cyclopropyl-N-(2,2,2-trifluoroethyl)acetamide], the figures for the IC50 on DDR1 kinase [2] and at DDR1 kinase [3] were 19 nM and 2.5 nM, respectively.

On to `CCNc1cc(C(=O)N2CC(c3nn(CC(=O)NCC(F)(F)F)c4cccc(Cl)c34)C2)ccn1` [Compound E-64, 2-(4-chloro-3-(1-[2-(ethylamino)pyridine-4-carbonyl]azetidin-3-yl}-1H-indazol-1-yl)-N-(2,2,2-trifluoroethyl)acetamide hydrochloride], for which the IC50 on DDR1 kinase [2] is 180 nM; at DDR1 kinase [3], 62 nM.

Regarding `Cc1ccc2c(n1)c(C1CN(C(=O)c3ccnc(NC4CC4)c3)C1)nn2CC(=O)N1CCC[C@H]1C(F)(F)F` [Compound E-130, 2-(3-(1-[2-(cyclopropylamino)pyridine-4-carbonyl]azetidin-3-yl}-5-methyl-1H-pyrazolo[4,3-b}pyridin-1-yl)-1-[(2S)-2-(trifluoromethyl)pyrrolidin-1-yl]ethan-1-one], the IC50 at DDR1 kinase [2] is 82 nM; on DDR1 kinase [3], 5.7 nM.

As to `Nc1cc(C(=O)N2CC(c3nn(CC(=O)N4CCCC4)c4cc(F)cc(F)c34)C2)ccn1` [Compound E-76, 2-{3-[1-(2-aminopyridine-4-carbonyl)azetidin-3-yl]-4,6-difluoro-1H-indazol-1-yl}-1-(pyrrolidin-1-yl)ethan-1-one], the IC50 turned out to be 1300 nM on DDR1 kinase [2] and 100 nM at DDR1 kinase [3].

For `Cc1cnc(N)cc1C(=O)N1CC(c2nn(CC(=O)N3CCC[C@H]3C(F)(F)F)c3cc(F)cc(F)c23)C1` [Compound E-78, 2-{3-[1-(2-amino-5-methylpyridine-4-carbonyl)azetidin-3-yl]-4,6-difluoro-1H-indazol-1-yl}-1-[(2S)-2-(trifluoromethyl)pyrrolidin-1-yl]ethan-1-one hydrochloride], the figures for the IC50 on DDR1 kinase [2] and on DDR1 kinase [3] were 380 nM and 13 nM, respectively.

As to `Cc1c(C(=O)N2CC(c3nn(CC(=O)N4CCC[C@H]4C(F)(F)F)c4cc(F)cc(F)c34)C2)ccnc1N` [Compound E-77, 2-{3-[1-(2-amino-3-methylpyridine-4-carbonyl)azetidin-3-yl]-4,6-difluoro-1H-indazol-1-yl}-1-{(2S)-2-(trifluoromethyl)pyrrolidin-1-yl]ethan-1-one hydrochloride], the IC50 at DDR1 kinase [2] worked out at 320 nM; on DDR1 kinase [3], 3.5 nM.

Turning to `Nc1cc(C(=O)N2CC=C(c3cn(CC(=O)N4CCC[C@H]4C(F)(F)F)c4cccc(F)c34)CC2)ccn1` [Compound E-124], the IC50 at DDR1 kinase [2] came out at 140 nM; at DDR1 kinase [3], 2.2 nM.

`Cc1ccc2c(n1)c(C1CN(C(=O)c3cc(N)ncc3F)C1)nn2CC(=O)N1CCOCC1(C)C` [Compound E-186, 2-{3-[1-(2-amino-5-fluoropyridine-4-carbonyl)azetidin-3-yl]-5-methyl-1H-pyrazolo[4,3-b]pyridin-1-yl}-1-(3,3-dimethylmorpholin-4-yl)ethan-1-one p-toluenesulfonate]: the IC50 was 690 nM on DDR1 kinase [2] and 23 nM at DDR1 kinase [3].

Consider `Nc1nccc(C(=O)N2CC(c3nn(CC(=O)N4CCO[C@@H](C(F)(F)F)C4)c4ccccc34)C2)c1F` [Compound E-194, 2-{3-[1-(2-amino-3-fluoropyridine-4-carbonyl)azetidin-3-yl]-1H-indazol-1-y1}-1-[(2R)-2-(trifluoromethyl)morpholin-4-yl]ethan-1-one], for which the IC50 was 370 nM on DDR1 kinase [2] and 4.8 nM on DDR1 kinase [3].

Consider `CC(C)(C)NC(=O)Cn1nc(C2CN(C(=O)c3ccnc(N)c3)C2)c2c(F)cc(F)cc21` [Compound E-189, 2-(3-[1-(2-aminopyridine-4-carbonyl)azetidin-3-yl]-4,6-difluoro-1H-indazol-1-yl}-N-tert-butylacetamide], for which the IC50 amounted to 460 nM on DDR1 kinase [2] and 11 nM on DDR1 kinase [3].

As to `O=C(c1cnc2ccccn12)N1CC(c2nn(CC(=O)N3CCC[C@H]3C(F)(F)F)c3cc(F)cc(F)c23)C1` [Compound E-101], the IC50 on DDR1 kinase [2] was 270 nM; at DDR1 kinase [3], 21 nM.

`CC1(C)COCCN1C(=O)Cn1nc(C2CN(C(=O)c3ccnc(N)c3)C2)c2ccccc21` [Compound E-188, 2-{3-[1-(2-aminopyridine-4-carbonyl)azetidin-3-yl]-1H-indazol-1-yl}-1-(3,3-dimethylmorpholin-4-yl)ethan-1-one]: the figures for the IC50 on DDR1 kinase [2] and on DDR1 kinase [3] were 89 nM and 7.9 nM, respectively.

`O=C(Cn1nc(C2CN(C(=O)c3ccnc(NC4CC4)c3)C2)c2c(Cl)c(F)ccc21)NCC(F)(F)F` [Compound E-1, 2-(4-chloro-3-{1-[2-(cycloropylamino)pyridine-4-carbonyl]azetidin-3-yl}-5-fluoro-1H-indazol-1-yl)-N-(2,2,2-trifluoroethyl)acetamide hydrochloride]: the IC50 worked out at 78 nM at DDR1 kinase [2] and 0.4 nM at DDR1 kinase [3].

Regarding `Nc1ncc(C(=O)N2CC(c3nn(CC(=O)N4CCC[C@H]4C(F)(F)F)c4cc(F)cc(F)c34)C2)o1` [Compound E-105, 2-{3-[1-(2-amino-1,3-oxazole-5-carbonyl)azetidin-3-yl]-4,6-difluoro-1H-indazol-1-yl}-1-[(28)-2-(trifluoromethyl)pyrrolidin-1-yl]ethan-1-one], the IC50 at DDR1 kinase [2] is 370 nM; at DDR1 kinase [3], 79 nM.

With `Nc1cc(C(=O)N2CC(c3nn(CC(=O)N4CCC[C@H]4C(F)(F)F)c4ccccc34)C2)c(F)cn1` [Compound E-3, 2-{3-[1-(2-amino-5-fluoropyridine-4-carbonyl)azetidin-3-yl]-1H-indazol-1-yl}-1-[(2S)-2-(trifluoromethyl)pyrrolidin-1-yl]ethan-1-one], the “Amount (%) of albumin in urine compared with medium-treated group” value in assay [1] (Dose 100 mg/kg) was 67%. In addition, the values for the IC50 at DDR1 kinase [2] and at DDR1 kinase [3] were 53 nM and 0.4 nM, respectively.

On to `Nc1cc(C(=O)N2CC(c3nn(CC(=O)NCC(F)(F)F)c4ccccc34)C2)ccn1` [Compound E-211, 2-{3-[1-(2-aminopyridine-4-carbonyl)azetidin-3-yl]-1H-indazol-1-yl}-N-(2,2,2-trifluoroethyl)acetamide], for which the IC50 was determined as 290 nM on DDR1 kinase [2] and 27 nM at DDR1 kinase [3].

For the molecule `Nc1cc(C(=O)N2CC(c3nn(Cc4ccc(C(F)(F)F)cc4)c4cccc(F)c34)C2)ccn1` [Compound E-112, 4-[3-(4-fluoro-1-{[4-(trifluoromethyl)phenyllmethyl}-1H-indazol-3-yl)azetidine-1-carbonyl]pyridin-2-amine hydrochloride], the values for the IC50 on DDR1 kinase [2] and on DDR1 kinase [3] were 170 nM and 3.7 nM, respectively.

`O=C(c1ccnc(NC2CC2)c1)N1CC(c2nn(CC(=O)N3CCC[C@H]3C(F)(F)F)c3cccnc23)C1` [Compound E-121, 2-(3-{1-[2-(cyclopropylamino)pyridine-4-carbonyl]azetidin-3-yl}-1H-pyrazolo[4,3-b]pyridin-1-yl)-1-[(2S)-2-(trifluoromethyl)pyrrolidin-1-yl]ethan-1-one]: the IC50 was found to be 170 nM on DDR1 kinase [2] and 24 nM on DDR1 kinase [3].

In the case of `Cc1nc(NC2CC2)sc1C(=O)N1CC(c2nn(CC(=O)N3CCC[C@H]3C(F)(F)F)c3cc(F)cc(F)c23)C1` [Compound E-99, 2-(3-{1-[2-(cyclopropylamino)-4-methyl-1,3-thiazole-5-carbonyl]azetidin-3-yl}-4,6-difluoro-1H-indazol-1-y1)-1-[(2S)-2-(trifluoromethyl)pyrrolidin-1-yl]ethan-1-one], the IC50 on DDR1 kinase [2] is 150 nM; at DDR1 kinase [3] it was 40 nM.

In the case of `O=C(Cn1nc(C2CN(C(=O)c3ccnc4[nH]ccc34)C2)c2c(Cl)cccc21)NCC(F)(F)F` [Compound E-61], the IC50 is 960 nM and 1600 nM on DDR1 kinase [2]; 2.8 nM on DDR1 kinase [3].
